Patent US12617779B2, “Self degradation-type CDK9 inhibitor prodrug and liposome encapsulating same” (Sumitomo Pharma Co., Ltd., priority 2021, dated 2026)

Experiment: Evaluation of conversion rate to active form in buffer solution (Experimental Example 1)
Format: physicochemical
Summary of the method: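 Conversion to Alvocidib was followed by HPLC over 3 hours at 37° C, with test compounds at 25 umol/L in 50 mM citrate or phosphate buffers spanning pH 5.0–7.4.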

Production rate of Alvocidib (pH5.0, 0 hr): 5.0%
Residual rate (pH5.0, 0 hr): 85.7%
Stability in buffer solution at pH 5 (pH 5, 37° C., up to 2 or 3 hours): unstable
Production rate of Alvocidib (pH5.0, 0.5 hr): 7.1%
Residual rate (pH5.0, 0.5 hr): 84.0%
Production rate of Alvocidib (pH5.0, 1 hr): 8.7%
Residual rate (pH5.0, 1 hr): 82.6%
Production rate of Alvocidib (pH5.0, 2 hr): 12.8%
Residual rate (pH5.0, 2 hr): 79.4%
Production rate of Alvocidib (pH5.0, 3 hr): 15.6%
Residual rate (pH5.0, 3 hr): 77.0%
Production rate of Alvocidib (pH5.5, 0 hr): 4.9%
Residual rate (pH5.5, 0 hr): 86.0%
Production rate of Alvocidib (pH5.5, 0.5 hr): 8.5%
Residual rate (pH5.5, 0.5 hr): 83.3%
Production rate of Alvocidib (pH5.5, 1 hr): 11.3%
Residual rate (pH5.5, 1 hr): 81.1%
Production rate of Alvocidib (pH5.5, 2 hr): 17.7%
Residual rate (pH5.5, 2 hr): 78.4%
Production rate of Alvocidib (pH5.5, 3 hr): 22.4%
Residual rate (pH5.5, 3 hr): 74.2%
Production rate of Alvocidib (pH6.0, 0 hr): 5.0%
Residual rate (pH6.0, 0 hr): 86.0%
Production rate of Alvocidib (pH6.0, 0.5 hr): 17.1%
Residual rate (pH6.0, 0.5 hr): 76.5%
Production rate of Alvocidib (pH6.0, 1 hr): 26.0%
Residual rate (pH6.0, 1 hr): 69.2%
Production rate of Alvocidib (pH6.0, 2 hr): 43.4%
Residual rate (pH6.0, 2 hr): 53.9%
Production rate of Alvocidib (pH6.0, 3 hr): 54.0%
Residual rate (pH6.0, 3 hr): 44.3%
Production rate of Alvocidib (pH6.5, 0 hr): 5.1%
Residual rate (pH6.5, 0 hr): 86.0%
Production rate of Alvocidib (pH6.5, 0.5 hr): 20.9%
Residual rate (pH6.5, 0.5 hr): 74.7%
Production rate of Alvocidib (pH6.5, 1 hr): 31.1%
Residual rate (pH6.5, 1 hr): 66.2%
Production rate of Alvocidib (pH6.5, 2 hr): 49.6%
Residual rate (pH6.5, 2 hr): 49.4%
Production rate of Alvocidib (pH6.5, 3 hr): 60.2%
Residual rate (pH6.5, 3 hr): 39.1%
Production rate of Alvocidib (pH7.0, 0 hr): 5.3%
Residual rate (pH7.0, 0 hr): 85.9%
Production rate of Alvocidib (pH7.0, 0.5 hr): 21.7%
Residual rate (pH7.0, 0.5 hr): 75.8%
Production rate of Alvocidib (pH7.0, 1 hr): 30.7%
Residual rate (pH7.0, 1 hr): 68.1%
Production rate of Alvocidib (pH7.0, 2 hr): 47.2%
Residual rate (pH7.0, 2 hr): 52.8%
Production rate of Alvocidib (pH7.0, 3 hr): 57.1%
Residual rate (pH7.0, 3 hr): 42.9%
Production rate of Alvocidib (pH7.4, 0 hr): 5.6%
Residual rate (pH7.4, 0 hr): 85.3%
Production rate of Alvocidib (pH7.4, 0.5 hr): 22.1%
Residual rate (pH7.4, 0.5 hr): 76.2%
Production rate of Alvocidib (pH7.4, 1 hr): 29.7%
Residual rate (pH7.4, 1 hr): 70.3%
Production rate of Alvocidib (pH7.4, 2 hr): 44.0%
Residual rate (pH7.4, 2 hr): 56.0%
Production rate of Alvocidib (pH7.4, 3 hr): 53.3%
Residual rate (pH7.4, 3 hr): 46.7%
Compound: CN1CC[C@H](c2c(O)cc(O)c3c(=O)cc(-c4ccccc4Cl)oc23)[C@H](OC(=O)[C@@H](N)CO)C1 [Comparative Example 9, reference compound]
